Laboratory results taken from publication PMC5430962, “Retro-inverso Urokinase Receptor Antagonists for the Treatment of Metastatic Sarcomas” (Scientific Reports, 2017).
[ ]: non-standard residue; d: D form. Aib = CC(C)(N)C(=O)O

Assays:
[1] = system: GFP-Sarc cells on HUVEC monolayer; assay: GFP-Sarc cell adhesion onto endothelium; type: cell-based, human; conditions: 10 nM
Procedure: GFP-tagged Sarc cells were seeded on an endothelial monolayer as previously described. Briefly, sterile round glass coverslips (12 mm in diameter) were coated with 1:8 diluted matrigel (Becton Dickinson). HUVEC (5 × 10^4 cells in 200 μL/well) were seeded onto matrigel and allowed to form a monolayer for ~24 hr at 37 °C, 5% CO2 prior to seeding GFP-Sarc cells (1 × 10^4 cells/well) suspended in complete endothelial medium plus diluents or 10 nM RI-3. At the indicated times, cell-associated fluorescence was assessed by reading cells with the fluorescence plate reader. In a subset of experiments, after 2 hr, cells were stained with rhodamine-conjugated phalloidin and green fluorescent Sarc cells were identified on multiple z-series collected at 0.20 µm intervals using a confocal microscope (Carl Zeiss).

[2] = system: Sarc cells crossing HUVEC monolayer; assay: Trans-endothelial migration of Sarc cells, xCELLigence RTCA; type: cell-based, human; conditions: 10 nM, EBM-10% FBS, slopes in a 25–35 hr time frame
Procedure: Trans-endothelial migration assays were performed using the xCELLigence RTCA technology as described. Briefly, HUVECs (1 × 10^4 cells/well) suspended in growth medium, were seeded in E-plates and allowed to grow for ~25 hr, until they form a confluent monolayer, prior to seeding Sarc cells (1 × 10^4 cells/well) in growth medium plus/minus 10 nM RI-3. When HUVECs are challenged with crossing cells, there is a drop in electrical resistance that is monitored in real-time as cell index changes due to the rupture of the endothelial monolayer. The experiment was performed twice in quadruplicate.

HT1080 cells [3] = assay: HT1080 matrigel invasion toward 10% FBS in Boyden chambers; type: cell-based, human; conditions: 10 nM peptide plus 10% FBS, 6 hr, means of three independent experiments in triplicate
Procedure: (§1) Cell migration in Boyden chambers was carried out for 4 hr at 37 °C in humidified air with 5% CO2, as described. Briefly, cell suspension (1 × 10^5 viable cells/mL serum free medium) was seeded in each upper chamber. Lower chambers were filled with DMEM alone, DMEM containing RI peptides, 10 nM fMLF, or 10% FBS with/without RI peptides. The two compartments were separated by 8 μm pore size polycarbonate filters (Neuroprobe) coated with 2.5 µg/mL vitronectin (Corning). For the invasion assays, 8 μm pore size filters were coated with 50 μg/filter matrigel (BD Biosciences) as previously described[40] and cells (3 × 10^4 viable cells/well) were allowed to invade matrigel for 6 hr at 37 °C, 5% CO2. In all cases, at the end of the assay, cells on the lower filter surface were fixed with ethanol, stained with haematoxylin and 10 random fields/filter were counted at 200× magnification. Each experiment was performed three times in triplicate.

HT1080 cells [4] = assay: HT1080 cell migration toward 10% FBS in Boyden chambers; type: cell-based, human; conditions: 10 nM peptide plus 10% FBS, 4 hr, means of three independent experiments in triplicate
Procedure: as §1

Sarc cells = assay: Growth, vascularization and circulating tumor cells of subcutaneous Sarc tumors in nude mice; type: in vivo, Foxn1nu/nu female nude mice; conditions: 6 mg/Kg i.p. every day for 10 days
Procedure: To evaluate the effect of RI-3 on tumor growth and vascularization, Sarc cells were injected, as a single-cell suspension (1 × 10^6 cells in 100 µl of sterile PBS, 97% viability), subcutaneously in the flanks of sixteen six-eight weeks old, Foxn1nu/nu female nude mice (Harlan). Animals were randomized into two 8-mice groups with the treatment group receiving 6 mg/kg RI-3 by intra-peritoneal injection every 24 hr, and the control group receiving an equivalent injected volume of vehicle (PBS) only. Time-dependent average weight was monitored every two days. The length and the width of tumors were measured at different time points with a calliper and volumes were calculated using the formula: ½ × (width)[2] × length (mm). After 10 days, blood samples (at least 500 µL/mouse) from the retro-orbital venous plexus of mice anesthetized with 1% isoflurane were collected using a heparinized capillary tube and processed for determination of the Circulating Tumor Cells (CTCs). Then, the animals were sacrificed, the excised tumors were fixed in buffered formalin and processed for paraffin sectioning. Tumor vascularization was assessed by counting vascular channels harbouring red blood cells on CD31 immuno-stained sections in 5 randomly chosen fields per section, in at least two sections per tumor at x 200 as described. Two additional experiments were carried out with the same experimental design by injecting GFP-tagged Sarc cells (1 × 10^6 cells/mouse) subcutaneously in the flanks of twenty-five six-eight weeks old, Foxn1nu/nu female nude mice (Harlan). Animals were treated with 6 mg/kg RI-3, 6 mg/kg RERF or vehicle by intra-peritoneal injection every 24 hr for 10 or 12 days. Tumor growth and the appearance of positive tumor lesions near tumors and in lungs were monitored as brightly visualized by GFP fluorescence with a MacroFluo fluorescence stereomicroscope (Leica). We searched for the presence of GFP-positive nodules on the entire surface of freshly isolated lungs. Lungs were also sliced at approximately 3-mm thickness to examine the parenchyma in depth, and the positive nodules were acquired at higher magnification.
To quantify CTCs, DNA from nucleated cells of murine blood samples (500 μl/mouse) was extracted using the QIAamp DNA Mini Kit (Qiagen), according to the manufacturer’s protocol. Quantitative RT-PCR (7900 HT Fast Real-Time PCR System, Applied Biosystems) was performed using 18 ng DNA and the SYBR Select Master Mix (Applied Biosystems) as described. Primers to human Alu-sequences [FW 5′-[…]-3′/RV 5′-CCCAGGCTGGAGTGCAGT-3′] were employed to a final concentration of 0.5 μM. The number of CTCs was calculated by comparing the obtained Ct with a standard amplification curve generated in spiking experiments (1 to 50 cells were collected by pipetting under microscopic control) which were included in every run. DNA from murine blood was included as a negative control.

Which “reduction of cell-associated fluorescence (adhesion to endothelium)” value (“reduction … (adhesion to endothelium)” for short) ([1]; after 5 min) does the source give for “Ac-[dY][dR][Aib][dR]-NH2 (SMILES CC(=O)N[C@H](Cc1ccc(O)cc1)C(=O)N[C@H](CCCNC(=N)N)C(=O)NC(C)(C)C(=O)N[C@H](CCCNC(=N)N)C(N)=O) [RI-3]” here?
Its value is 72%.

What about the “reduction … (adhesion to endothelium)” value ([1]; after 10 min) of the same substance?
The value was 50%.

What about the “reduction … (adhesion to endothelium)” value ([1]; after 20 min) of the same substance?
Its value is 20%.

What about the “reduction … (adhesion to endothelium)” value ([1]; after 40 min) of the same substance?
Its value is 22%.

What about the “reduction of the capability of Sarc cells to disrupt endothelial monolayers” value [2] of the same substance?
Its value is 24%.

And the “reduction of the extent of cell invasion (matrigel)” value (HT1080 cells [3])?
The value was 51%.

What about the “reduction of FBS-directed cell migration” value (HT1080 cells [4]) of the same substance?
Its value is 57%.

What about the “intra-tumoral microvessel density (CD31) vs vehicle-treated mice” value (Sarc cells) of the same substance?
The value was “a reduced microvessel density”.

And the “treated mice in which no CTCs were detected” value (Sarc cells)?
The value was 4/8.

What about the “body weight vs vehicle-treated mice” value (Sarc cells; eight mice) of the same substance?
The value was “comparable”.

What about the “volume of tumors after 10 days” value (Sarc cells; eight mice, vehicle 330 +/− 163) of the same substance?
The value was 185 +/− 82 mm^3.

And the “circulating tumor cells in blood of CTC-positive mice” value (Sarc cells; Alu Real-Time PCR, vehicle 10.04 +/− 3.7 in 8/8 mice)?
The value was 2.6 +/− 2.7 CTCs/mL.
